The assay concerns the target T1, recombinant guanylate cyclase reporter cell line (Rattus norvegicus, UniProt P19686+P20595).
T1 construct: expressed in transfected cells
T1 sequence (P20595 1-619): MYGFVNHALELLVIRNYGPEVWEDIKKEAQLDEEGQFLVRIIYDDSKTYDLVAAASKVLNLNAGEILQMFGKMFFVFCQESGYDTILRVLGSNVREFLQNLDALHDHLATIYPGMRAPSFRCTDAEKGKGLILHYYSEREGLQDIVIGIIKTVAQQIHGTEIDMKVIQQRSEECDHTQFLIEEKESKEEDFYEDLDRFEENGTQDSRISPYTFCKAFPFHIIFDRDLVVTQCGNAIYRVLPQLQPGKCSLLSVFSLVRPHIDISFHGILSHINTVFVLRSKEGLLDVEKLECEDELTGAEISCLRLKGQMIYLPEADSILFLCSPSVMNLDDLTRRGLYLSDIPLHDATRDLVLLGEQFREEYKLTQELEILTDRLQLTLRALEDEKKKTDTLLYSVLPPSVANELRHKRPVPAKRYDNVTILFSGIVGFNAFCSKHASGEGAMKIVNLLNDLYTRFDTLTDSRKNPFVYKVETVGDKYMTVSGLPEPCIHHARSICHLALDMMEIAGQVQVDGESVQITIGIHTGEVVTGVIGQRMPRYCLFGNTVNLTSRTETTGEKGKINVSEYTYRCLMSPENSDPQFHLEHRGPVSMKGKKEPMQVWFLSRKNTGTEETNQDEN
T1 sequence (P19686 1-690): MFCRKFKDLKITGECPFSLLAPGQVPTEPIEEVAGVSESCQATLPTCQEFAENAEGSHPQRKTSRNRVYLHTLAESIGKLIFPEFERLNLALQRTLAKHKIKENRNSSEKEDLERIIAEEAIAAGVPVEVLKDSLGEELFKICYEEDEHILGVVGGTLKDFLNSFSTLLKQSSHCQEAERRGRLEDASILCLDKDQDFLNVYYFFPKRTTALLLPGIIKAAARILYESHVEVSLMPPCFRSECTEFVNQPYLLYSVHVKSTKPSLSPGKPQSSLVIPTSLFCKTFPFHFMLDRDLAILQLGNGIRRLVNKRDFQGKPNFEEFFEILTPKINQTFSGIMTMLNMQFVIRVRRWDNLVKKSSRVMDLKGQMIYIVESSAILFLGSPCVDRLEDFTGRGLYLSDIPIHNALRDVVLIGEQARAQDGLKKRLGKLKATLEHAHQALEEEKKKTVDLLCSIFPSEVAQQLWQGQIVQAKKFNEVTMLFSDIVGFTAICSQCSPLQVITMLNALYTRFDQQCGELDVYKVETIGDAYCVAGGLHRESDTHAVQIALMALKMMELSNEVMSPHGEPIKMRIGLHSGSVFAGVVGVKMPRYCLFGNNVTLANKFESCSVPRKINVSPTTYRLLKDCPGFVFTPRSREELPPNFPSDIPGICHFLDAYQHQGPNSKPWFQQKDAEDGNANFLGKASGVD
In words: B-2. Action on recombinant guanylate cyclase reporter cell line. In kind it is cell-based. Conditions: MEC = minimal effective concentration; in some cases mean values from individual determinations. Here is the method:
B-2. Action on Recombinant Guanylate Cyclase Reporter Cell Line
The cellular action of the compounds according to the invention is determined on a recombinant guanylate cyclase reporter cell line, as described in F. Wunder et al., Anal. Biochem. 339, 104-112 (2005).
Representative MEC values (MEC=minimal effective concentration) for the compounds according to the invention are shown in the following table (in some cases as mean values obtained from individual determinations): […]

Structures are written as SMILES.

Take `Cc1cc(OCc2c(F)cccc2F)c2nc(C)c(C(=O)NC3CNc4ccccc4C3)n2c1` (racemic) [Example 76, rac-8-[(2,6-difluorobenzyl)oxy]-2,6-dimethyl-N-(1,2,3,4-tetrahydroquinolin-3-yl)imidazo[1,2-a]-pyridine-3-carboxamide]: the MEC was determined as 0.30 µM.

As to `Cc1cc(OCc2c(F)cccc2F)c2nc(C)c(C(=O)NC(C)C3CCN(C)CC3)n2c1` (racemic) [Example 77, rac-8-[(2,6-difluorobenzyl)oxy]-2,6-dimethyl-N-[1-(1-methylpiperidin-4-yl)ethyl]imidazo[1,2-a]-pyridine-3-carboxamide], the MEC was determined as 1.00 µM. For `Cc1nc2c(OCc3c(F)cccc3F)cc(Cl)cn2c1C(=O)NC(C)C1CCN(C)CC1` (racemic) [Example 78, rac-6-chloro-8-[(2,6-difluorobenzyl)oxy]-2-methyl-N-[1-(1-methylpiperidin-4-yl)ethyl]-imidazo[1,2-a]pyridine-3-carboxamide] the value was 1.00 µM. In the case of `Cc1nc2c(OCc3c(F)cccc3F)cccn2c1C(=O)NCC1NCCc2ccccc21` (racemic) [Example 80, rac-8-[(2,6-difluorobenzyl)oxy]-2-methyl-N-(1,2,3,4-tetrahydroisoquinolin-1-ylmethyl)-imidazo[1,2-a]pyridine-3-carboxamide], the MEC was found to be 1.00 µM.

Regarding `Cc1nc2c(OCc3c(F)cccc3F)cccn2c1C(=O)NC1CCCN(C)C1` (racemic) [Example 84, rac-8-[(2,6-difluorobenzyl)oxy]-2-methyl-N-(1-methylpiperidin-3-yl)imidazo[1,2-a]-pyridine-3-carboxamide], the MEC stood at 1.00 µM. In the case of `Cc1nc2c(OCc3c(F)cccc3F)cccn2c1C(=O)NC1CCN(Cc2ccccc2)C1` (racemic) [Example 85, rac-N-(1-benzylpyrrolidin-3-yl)-8-[(2,6-difluoro-benzyl)oxy]-2-methylimidazo[1,2-a]-pyridine-3-carboxamide], the MEC is 1.00 µM. `Cc1nc2c(OCc3c(F)cccc3F)cc(Cl)cn2c1C(=O)NCC1CCCCN1` (racemic) [Example 118, rac-6-chloro-8-[(2,6-difluorobenzyl)oxy]-2-methyl-N-(piperidin-2-ylmethyl)imidazo[1,2-a]-pyridine-3-carboxamide]: the MEC was 1.00 µM. Take `Cc1nc2c(OCc3c(F)cccc3F)cccn2c1C(=O)NC12CNCCC1C2` (racemic) [Example 125, rac-N-(3-Azabicyclo[4.1.0]hept-1-yl)-8-[(2,6-difluorobenzyl)oxy]-2-methylimidazo[1,2-a]-pyridine-3-carboxamide]: the MEC is 1.00 µM. In the case of `Cc1nc2c(OCc3c(F)cccc3F)cccn2c1C(=O)NCC(C)N1CCOCC1` (racemic) [Example 132, rac-8-[(2,6-difluorobenzyl)oxy]-2-methyl-N-[2-(morpholin-4-yl)propyl]imidazo[1,2-a]pyridine-3-carboxamide], the MEC was 1.00 µM.

Take `Cc1nc2c(OCc3c(F)cccc3F)cccn2c1C(=O)NC(CN1CCOCC1)c1ccccc1` (racemic) [Example 134, rac-8-[(2,6-difluorobenzyl)oxy]-2-methyl-N-[2-(morpholin-4-yl)-1-phenylethyl]imidazo[1,2-a] - pyridine-3-carboxamide]: the MEC came out at 3.00 µM.

In the case of `Cc1cc(OCc2c(F)cccc2F)c2nc(C)c(C(=O)NCCNC(C)C)n2c1` (racemic) [Example 135, rac-8-[(2,6-difluorobenzyl)oxy]-N-[2-(isopropylamino)ethyl]-2,6-dimethylimidazo[1,2-a]pyridine-3-carboxamide], the MEC is 1.00 µM.

Turning to `Cc1cc(OCc2c(F)cccc2F)c2nc(C)c(C(=O)NCC(C)N3CCOCC3)n2c1` (racemic) [Example 138, rac-8-[(2,6-difluorobenzyl)oxy]-2,6-dimethyl-N-[2-(morpholin-4-yl)propyl]imidazo[1,2-a]-pyridine-3-carboxamide], the MEC turned out to be 0.30 µM.

These data come from patent US9624214B2, “Amino-substituted imidazo[1,2-a]pyridinecarboxamides and their use” (BAYER PHARMA AKTIENGESELLSCHAFT, priority 2012, dated 2017).
